In patent publication EP0498222A1, “Novel peptides” (SUMITOMO CHEMICAL COMPANY LIMITED, priority 1991, dated 1992):
Positions of bridges follow the written chain, without caps; N, C: chain ends. Residues, ends and D or L forms follow the SMILES beside them.

Assays:
[1] = tested on: last instar larvae of Pseudaletia separata; test: Effect on growth (body weight) of last instar larvae after injection; type: in vivo; details: 7 picomoles injected on day 0, day 1 and day 2 of last instar; weight checked until day 3; control about 2.5 times day 0 weight on day 3
Description: To examine the effect of peptide I-a on the growth of last instar larvae of Pseudaletia separata, last instar larvae of P. separata were injected with 7 picomoles of peptide I-a for consecutive three days (day 0, day 1 and day 2). They were reared on an artificial diet and the weight of each larva was checked until day 3. […] The open circles ( ⃝) indicate the body weights of the last instar larvae injected with 7 picomoles of peptide I-a on day 0, day 1 and day 2 while the closed circles (●) indicate the body weights of last instar larvae injected with Ringer's solution on day 0, day 1 and day 2.

JH esterase = JH esterase activity assay of hemolymph from injected larvae, (10-3H)JH I as substrate; type: in vivo, Pseudaletia separata; details: predetermined doses injected on day 1 and day 2; hemolymph collected on day 3
Description: The purified peptide I-a was diluted with Ringer's solution and injected, at a predetermined dose, into unparasitized last instar larvae of Pseudaletia separata on day 1 and day 2. The larvae were further reared on an artificial diet. On day 3, hemolymph was prepared from the larvae and centrifuged (500 x g, 4°C, 5 minutes). The supernatant thus collected was subjected to JH esterase activity assay. (10-³H)JH I was used as the substrate for activity assay and the JH-metabolizing activity was estimated based on the proportion of JH acid to the total product formed under the action of JH esterase.

[2] = tested on: unparasitized last instar larvae of Pseudaletia separata; test: Insect development controlling activity (growth stage checked at 24-hour intervals); type: in vivo; details: 7 picomoles injected on day 1 and day 2; control Ringer's solution
Description: The purified peptide I-a was dissolved with Ringer's solution and injected, at a dose of 7 picomoles, into unparasitized last instar larvae of Pseudaletia separata on day 1 and day 2. Then the growth stage (larva, prepupa, pupa, or dead) of each larva was checked at 24-hour intervals and the number of individuals in each stage was recorded. Control larvae were injected with Ringer's solution alone.

In the case of `CSCC[C@@H]1NC(=O)[C@H](Cc2ccc(O)cc2)NC(=O)CNC(=O)[C@H](C)NC(=O)[C@H](C(C)C)NC(=O)[C@@H](NC(=O)CNC(=O)CNC(=O)[C@H](CO)NC(=O)[C@H](Cc2ccccc2)NC(=O)[C@H](CC(N)=O)NC(=O)[C@@H](N)CCC(=O)O)CSSC[C@@H](C(=O)N[C@@H](CCCCN)C(=O)N2CCC[C@H]2C(=O)N[C@H](C(=O)N[C@@H](Cc2ccccc2)C(=O)N[C@@H](Cc2ccc(O)cc2)C(=O)N[C@@H](CCC(N)=O)C(N)=O)[C@@H](C)O)NC(=O)[C@H](CCCNC(=N)N)NC(=O)CNC(=O)[C@H](CC(=O)O)NC(=O)[C@@H]2CCCN2C(=O)[C@H]([C@@H](C)O)NC(=O)[C@H](CCCNC(=N)N)NC1=O` [peptide I-a] (H-ENFSGGCVAGYMRTPDGRCKPTFYQ-NH2; disulfide 7-19), the body weight change [1] is reported as “only slight increases in body weight”, the JH esterase activity (JH esterase) is reported as “repressed the JH esterase activity in a dose dependent manner” and the “prepupal stage came later than in control larvae” value [2] is reported as 2 days. The “pupation later than in control larvae” value [2] was “more than 2 days”.
